{
  "source": "patent US20210186982A1",
  "about": "“METHODS AND COMPOSITIONS FOR TREATING MELANOMA” (UNIVERSITE NICE SOPHIA ANTIPOLIS, priority 2017, published 2021)",
  "key": {"[1]": {"system": "12051u and A375 cells", "test": "Immunoblot analysis of proliferation and apoptosis proteins", "type": "cell-based, human", "protocol": "Melanoma cells were harvested as described before 6. Cells were lysed at 4° C. in RIPA buffer (Millipore) supplemented with Pierce™ Protease and Phosphatase Inhibitor Mini Tablets, and briefly sonicated. Cell lysates were cleared at 16,000 xg for 15 min at 4° C. Whole cell lysates were subjected to SDS-PAGE and immunoblot analysis as previously described 6."}, "[2]": {"system": "12051u cells", "test": "Cell cycle / sub-G1 analysis by flow cytometry (PI)", "type": "cell-based, human", "conditions": "24 h", "protocol": "(§1) Cell cycle profiles and sub-G1 analysis were performed by flow cytometry analysis of propidium iodide (PI)-stained cells. Briefly, following permeabilization in icecold ethanol 70%, cells were stained with PI 40 μg/ml in PBS supplemented with RNAse A 100 μg/ml before analysis using a BD FACSCanto cytometer."}, "[3]": {"system": "A375 cells", "test": "Cell cycle / sub-G1 analysis by flow cytometry (PI)", "type": "cell-based, human", "conditions": "24 h", "protocol": "as §1"}, "[4]": {"system": "451Lu-R Luc+ cells", "test": "Melanoma xenograft in nude mice, tumor bioluminescence", "type": "in vivo", "conditions": "10 mgkg-1 i.p. every 3 days, vs vehicle", "protocol": "All mouse experiments were carried out in accordance with the Institutional Animal Care and the local ethics committee. For human melanoma xenografts, 5-week-old female athymic (nu/nu) mice (Harlan) were subcutaneously injected with 1×106 451Lu-R BRAF inhibitor resistant melanoma cells engineered to express a luciferase reporter (451Lu-R Luc+ cells) in 100 μl of PBS. After 3 days, mice were injected every 3 days intraperitoneally with vehicle or 10 mgkg-1 b-AP15 in 90/1/9 mix of Labrafil/Tween 80/DMA. At the indicated time, mice were anesthetized and injected intraperitoneally with 50 mgkg-1 D-luciferin (Perkin Elmer) in PBS. Images were acquired using a Photon Imager (Biospace Lab) system and data analysed with the M3Vision software (Biospace Lab). Tumor growth was monitored and quantified using BLI. The total numbers of photons per second per steradian per square centimeter were recorded. For BLI plots, photon flux was calculated for each mouse by using a rectangular region of interest encompassing the thorax of the mouse in a prone position."}, "[5]": {"test": "Annexin-V-FITC/7-AAD flow cytometry, cell viability", "type": "cell-based", "conditions": "human, A375 cells; solvent 87%", "protocol": "Cell death was evaluated by flow cytometry following staining with Annexin-V-FITC and 7-AAD (eBiosciences) as previously described 24."}, "[6]": {"system": "4511u and 4511uR cells", "test": "Colony formation assay", "type": "cell-based, human", "protocol": "(§2) Alternatively, cell growth was assessed by crystal violet staining on cells seeded in 24-well plates for the indicated time. After treatment, cells were fixed in PFA 3% during 20 min, washed with PBS 3 times and stained with crystal violet 0.4% in ethanol 20% for 30 min."}, "[7]": {"system": "A375DR", "test": "MTS conversion assay, melanoma cell proliferation", "type": "cell-based", "conditions": "Homo sapiens, MET, BRAFV600E/CDKN2A*/?, resistance vemurafenib/ERKi, 48 h MTS, read-out: b-AP15 IC50", "protocol": "(§3) Cell proliferation was measured by a MTS conversion assay using the CellTiter 96® Aqueous Non-Radioactive Cell Proliferation kit (Promega, Madison Wis.) according to the manufacturer instructions. Cells were seeded in 96-well plates (5×10^4 cells/well) and treated with different reagents for the indicated times and incubated at 37° C. with MTS reagent. The optical density of each sample at 490 nm was determined with a Multiskan FC plate reader (Thermo Fisher Scientific, Waltham, Mass. USA)."}, "[8]": {"system": "WM164", "test": "MTS conversion assay, melanoma cell proliferation", "type": "cell-based", "conditions": "Homo sapiens, MET, BRAFV600E/CDKN2A*, resistance none, 48 h MTS, read-out: b-AP15 IC50", "protocol": "as §3"}, "[9]": {"system": "WM266-4", "test": "MTS conversion assay, melanoma cell proliferation", "type": "cell-based", "conditions": "Homo sapiens, WM 266-4, MET, BRAFV600D/PTEN*, resistance none, 48 h MTS, read-out: b-AP15 IC50", "protocol": "as §3"}, "[10]": {"system": "m238R", "test": "MTS conversion assay, melanoma cell proliferation", "type": "cell-based", "conditions": "Homo sapiens, MET, BRAFV600E/PTEN*/RTK*, resistance vemurafenib, 48 h MTS, read-out: b-AP15 IC50", "protocol": "as §3"}, "[11]": {"system": "451Iu", "test": "MTS conversion assay, melanoma cell proliferation", "type": "cell-based", "conditions": "Homo sapiens, MET, BRAFV600E/p53*, resistance none, 48 h MTS, read-out: b-AP15 IC50", "protocol": "as §3"}, "[12]": {"system": "Mel1617", "test": "MTS conversion assay, melanoma cell proliferation", "type": "cell-based", "conditions": "Homo sapiens, MET, BRAF*/p53*, resistance none, 48 h MTS, read-out: b-AP15 IC50", "protocol": "as §3"}, "[13]": {"system": "Pt#1 patient cells", "test": "MTS conversion assay, patient melanoma cell proliferation", "type": "cell-based", "conditions": "Homo sapiens; Patient cells Pt#1; MET; BRAF*; resistance none; 48 h MTS; read-out: b-AP15 IC50", "protocol": "as §3"}, "[14]": {"system": "Me1501 and A375 cells", "test": "Colony formation", "type": "cell-based, human", "conditions": "compared to untreated cells", "protocol": "as §2"}, "[15]": {"system": "A375", "test": "Real-time imaging growth curve (IncuCyte Zoom)", "type": "cell-based, human", "conditions": "2 μM; 3 days; compared with bortezomib and VLX1570", "protocol": "FIG. 8. USP14 inhibition induces growth inhibition and cytotoxicity on melanoma cell lines. (A) Growth curve of A375 treated with 2 μM b-AP15, 2 μM VLX1570 or […] bortezomib (BTZ). Data were acquired in triplicate during 3 days using an IncuCyte Zoom. (B) and (C) Cytotoxic effects of USP14 inhibition on melanoma cells. A375 and Me1501 cells were treated with the indicated doses of b-AP15 or VLX1570, and stained with cytotox green reagent (100 nM). Cytotoxicity was monitored in triplicate for 72 h with an IncuCyte imaging system."}, "[16]": {"system": "m229R", "test": "MTS conversion assay, melanoma cell proliferation", "type": "cell-based, human", "protocol": "as §3"}, "[17]": {"system": "1205Iu", "test": "MTS conversion assay, melanoma cell proliferation", "type": "cell-based, human", "protocol": "as §3"}, "[18]": {"system": "451IuR", "test": "MTS conversion assay, melanoma cell proliferation", "type": "cell-based, human", "protocol": "as §3"}, "[19]": {"system": "501Mel", "test": "MTS conversion assay, melanoma cell proliferation", "type": "cell-based, human", "protocol": "as §3"}, "[20]": {"system": "A375", "test": "MTS conversion assay, melanoma cell proliferation", "type": "cell-based, human", "protocol": "as §3"}, "[21]": {"conditions": "24 h, increasing doses 0.1 to 10 μM"}, "[22]": {"conditions": "24 h, increasing doses 0.01 to 10 μM"}},
  "note": "Entries after “also recorded” stand apart in the source; their conditions may differ.",
  "data": [
    {"smiles": "Cc1cc(C(=O)CN2CCCC2)c(C)n1-c1ccc(F)cc1", "note": "[b-AP15]", "values": [
      {"measurement": "levels of p53 and of the cell cycle inhibitor p21", "setting": "[1]", "value": "increased"},
      {"measurement": "levels of phosphorylated Rb proteins", "setting": "[1]", "value": "reducing"},
      {"measurement": "sub-G1 cell population with reduced DNA content", "setting": "[2]", "value": 19, "unit": "%"},
      {"measurement": "sub-G1 cell population with reduced DNA content", "setting": "[3]", "value": 11, "unit": "%"},
      {"measurement": "melanoma burden, bioluminescence analysis of tumor growth", "setting": "[4]", "value": "marked decrease in melanoma burden"},
      {"measurement": "viability", "setting": "[5]", "value": 52, "unit": "%"},
      {"measurement": "melanoma colony formation", "setting": "[6]", "value": "suppressed melanoma colony formation"},
      {"measurement": "IC50", "setting": "[7]", "value": 1300, "unit": "nM"},
      {"measurement": "IC50", "setting": "[8]", "value": 900, "unit": "nM"},
      {"measurement": "IC50", "setting": "[9]", "value": 500, "unit": "nM"},
      {"measurement": "IC50", "setting": "[10]", "value": 200, "unit": "nM"},
      {"measurement": "IC50", "setting": "[11]", "value": 900, "unit": "nM"},
      {"measurement": "IC50", "setting": "[12]", "value": 1400, "unit": "nM"},
      {"measurement": "IC50", "setting": "[13]", "value": 3400, "unit": "nM"},
      {"measurement": "ability to form colonies, compound treatment", "setting": "[14]", "value": "no longer capable of forming colonies"},
      {"measurement": "effect on cell proliferation, real-time imaging", "setting": "[15]", "value": "rapid"},
      {"measurement": "cell proliferation of BRAFi-resistant m229R cells (MTS)", "setting": "[16]; [21]", "value": "potently decreased cell proliferation"},
      {"measurement": "IC50", "setting": "[16]; Homo sapiens, m229R, MET, BRAFV600E/PTEN*/RTK*, resistance vemurafenib, 48 h MTS, read-out: b-AP15 IC50", "value": 1100, "unit": "nM"},
      {"measurement": "cell proliferation of 1205Lu cells (MTS)", "setting": "[17]; [22]", "value": "impaired cell proliferation in a dose-dependent manner"},
      {"measurement": "IC50", "setting": "[17]; Homo sapiens, 1205Iu, MET, BRAFV600E/PTEN*, resistance none, 48 h MTS, read-out: b-AP15 IC50", "value": 400, "unit": "nM"},
      {"measurement": "cell proliferation of BRAFi-resistant 4511uR cells (MTS)", "setting": "[18]; [21]", "value": "potently decreased cell proliferation"},
      {"measurement": "IC50", "setting": "[18]; Homo sapiens, 451IuR, MET, BRAFV600E/p53*/?, resistance dabrafenib, 48 h MTS, read-out: b-AP15 IC50", "value": 1300, "unit": "nM"},
      {"measurement": "cell proliferation of 501me1 cells (MTS)", "setting": "[19]; [22]", "value": "impaired cell proliferation in a dose-dependent manner"},
      {"measurement": "IC50", "setting": "[19]; Homo sapiens, 501Mel, MET, BRAFV600E, resistance none, 48 h MTS, read-out: b-AP15 IC50", "value": 500, "unit": "nM"},
      {"measurement": "cell proliferation of A375 cells (MTS)", "setting": "[20]; 24 h, increasing doses up to 10 μM", "value": "drastically decreased cell proliferation; also recorded: impaired cell proliferation in a dose-dependent manner"},
      {"measurement": "IC50", "setting": "[20]; Homo sapiens, A-375, A375, MET, BRAFV600E/CDKN2A*, resistance none, 48 h MTS, read-out: b-AP15 IC50", "value": 600, "unit": "nM"}
    ]}
  ]
}
